Results on 1 compound are retold here after patent publication US7736909B2, “Methods and compositions comprising capture agents” (Board of Regents, the University of Texas System, priority 2003, dated 2010).

This experiment deals with T1, His6Gal80 (Saccharomyces cerevisiae, UniProt P04387).
T1 construct: His6 (N); made in house; host or cells: E. coli
T1 sequence (P04387 1-435): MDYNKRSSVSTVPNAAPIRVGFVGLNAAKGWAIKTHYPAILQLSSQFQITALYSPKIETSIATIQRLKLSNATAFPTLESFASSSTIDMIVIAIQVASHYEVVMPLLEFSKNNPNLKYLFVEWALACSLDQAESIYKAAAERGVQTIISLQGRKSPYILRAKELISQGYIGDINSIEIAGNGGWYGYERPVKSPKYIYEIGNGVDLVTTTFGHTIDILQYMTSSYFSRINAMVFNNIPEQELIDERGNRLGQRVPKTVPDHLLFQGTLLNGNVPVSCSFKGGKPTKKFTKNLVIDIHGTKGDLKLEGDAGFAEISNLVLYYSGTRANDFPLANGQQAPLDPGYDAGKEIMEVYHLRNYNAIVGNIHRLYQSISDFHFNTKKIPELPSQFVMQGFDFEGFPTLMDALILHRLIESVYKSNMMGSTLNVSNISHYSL
The experiment in a line: capturing dilute proteins with Tentagel-bound peptide. The experiment is classed as binding. The settings on record: peptide on Tentagel. As for the experimental part: Capturing Dilute Proteins. Approximately 0.014 g of Tentagel beads displaying Gal80 binding peptide was blocked with 10% milk overnight at 4° C. The beads were divided equally into 7 tubes and incubated with 500 μL of buffer containing various amounts of His6Gal80 protein (5 to 400 ng) for 2 hours at 4° C. After washing four times with TBST buffer and twice with PBS, gel loading dye was added directly to the beads and the amount of bound His6Gal80 was determined as described above. A second gel containing known amounts of pure His6Gal80 was analyzed simultaneously and was used as a standard to quantitate the amount of His6Gal80 retained on the beads.
Efficient capture of dilute proteins. In all of the above examples, the protein was loaded onto the peptide-coated bead at a relatively high concentration (300 nM) prior to dilution. Since the concentration of most proteins of interest in a biological sample will be lower, it was of interest to evaluate the ability of a Tentagel-bound peptide to capture a dimeric protein from more dilute solutions. […] After washing, the bound protein was detected by boiling the beads in denaturing loading buffer followed by SDS-PAGE/western, blot analysis of the resulting supernatant. […] Further dilution of the protein in this assay format exceeded the sensitivity of the western blot. […]

Residues, ends and D or L forms follow the SMILES beside them.

Regarding `CSCC[C@H](NC(=O)[C@H](CC(=O)O)NC(=O)[C@H](CCC(N)=O)NC(=O)[C@H](CC(=O)O)NC(=O)[C@@H](N)Cc1ccc(O)cc1)C(=O)N[C@@H](CCC(N)=O)C(=O)N[C@@H](CC(N)=O)C(=O)N[C@@H](CC(N)=O)C(=O)N[C@H](C(=O)N[C@@H](Cc1ccccc1)C(=O)N[C@@H](CC(=O)O)C(=O)N[C@@H](CC(=O)O)C(=O)N[C@@H](CC(C)C)C(=O)N[C@@H](Cc1ccccc1)C(=O)N[C@@H](Cc1c[nH]c2ccccc12)C(=O)N[C@@H](CCCCN)C(=O)N[C@@H](CCC(=O)O)C(=O)NCC(=O)N[C@@H](Cc1c[nH]cn1)C(=O)N[C@@H](CCCNC(=N)N)C(=O)O)[C@@H](C)O` [Ga180bp] (H-YDQDMQNNTFDDLFWKEGHR-OH; N-terminus and C-terminus assumed), the “dissociation constant of immobilized peptide for Gal80 dimer” value is “sub-nanomolar”.
